Experiment: solvent given as SMILES

ClCCl
Conditions	solvation free energy, 298 K [kcal/mol]
in C1CCOC1	-4.27
in C1COCCO1	-4.09
in C=CCCCCCCCCCCCCCC	-2.77
in CC#N	-3.99
in CC(=O)N(C)C	-4.34
in CC(C)=O	-4.13
in CC(C)CC(C)(C)C	-2.84
in CC(C)O	-3.26
in CCC(C)=O	-4.05
in CCCCC	-3.09
in CCCCCCC	-2.91
in CCCCCCCC	-2.86
in CCCCCCCCC=CCCCCCCCC(=O)OCC(COC(=O)CCCCCCCC=CCCCCCCCC)OC(=O)CCCCCCCC=CCCCCCCCC	-3.37
in CCCCCCCCCCCCCC	-2.67
in CCCCCCCCCCCCCCCC	-2.72
in CCCCCCCCCCCCO	-2.91
in CCCCCCCCN(CCCCCCCC)CCCCCCCC	-2.82
in CCCCCCCCO	-3.08
in CCCCCN(CCCCC)CCCCC	-2.99
in CCCCCO	-3.19
in CCCCCl	-3.55
in CCCCN(C=O)CCCC	-3.92
in CCCCN(CCCC)CCCC	-2.87
in CCCCO	-3.29
in CCCCOC	-3.78
in CCCCOCCCC	-3.21
in CCCOCCC	-3.51
in CCN1CCCC1=O	-4.29
in CCN(CC)C(C)=O	-4.28
in CCNC(C)=O	-3.72
in CCNC=O	-3.7
in CCO	-3.36
in CCOC(=O)c1ccccc1C(=O)OCC	-3.51
in CCOC(C)=O	-4.04
in CCOCC	-3.87
in CN1CCCC1=O	-4.23
in CN1CCCCC1=O	-4.45
in CNC(C)=O	-3.74
in CO	-3.49
in COC(C)=O	-4.03
in CS(C)=O	-4.13
in Cc1ccc(C)cc1	-3.55
in Cc1cccc(C)c1	-3.58
in Cc1ccccc1C	-3.58
in ClC(Cl)(Cl)Cl	-3.36
in ClC(Cl)Cl	-3.62
in ClCCCl	-3.72
in Clc1ccccc1	-3.53
in N#Cc1ccccc1	-3.78
in NC=O	-2.66
in O	-1.32
in O=C1CCCCC1	-4.13
in [2H]O[2H]	-1.5

O=C(O)c1ccccc1[N+](=O)[O-]
Conditions	solvation free energy, 298 K [kcal/mol]
in CCCCCCCCO	-12.5

C1CCCCC1
Conditions	solvation free energy, 298 K [kcal/mol]
in BrC(Br)C(Br)Br	-3.42
in Brc1cccc2ccccc12	-3.66
in Brc1ccccc1	-4.07
in C1=Cc2ccccc2C1	-3.92
in C1CCC(C2CCCCC2)CC1	-4.09
in C1CCNC1	-4.04
in C1CCNCC1	-4.32
in C1CCOC1	-4.23
in C1COCCO1	-3.66
in C=CCCCC	-4.22
in C=CCCCCCC	-4.18
in C=CCCCCCCCC	-4.12
in C=CCCCCCCCCCCCCCC	-3.89
in CC1CCS(=O)(=O)C1	-2.73
in CC1COC(=O)O1	-2.65
in CC#N	-3.03
in CC(=O)CC(C)C	-3.92
in CC(=O)O	-3.23
in CC(=O)OCc1ccccc1	-3.53
in CC(=O)c1ccccc1	-3.52
in CC(C)(C)O	-3.67
in CC(C)=O	-3.58
in CC(C)CC(C)(C)C	-4.15
in CC(C)CCCC(C)CCCC(C)CCCCC(C)CCCC(C)CCCC(C)C	-3.87
in CC(C)CCO	-3.77
in CC(C)CO	-3.93
in CC(C)O	-3.52
in CC(C)OC(C)C	-4.18
in CCBr	-4.31
in CCC#N	-3.57
in CCC(C)(C)OC	-4.3
in CCC(C)=O	-3.79
in CCC(C)O	-3.64
in CCCC#N	-3.45
in CCCC(=O)OCC	-3.93
in CCCC(C)=O	-3.82
in CCCCC	-4.25
in CCCCC#N	-3.58
in CCCCC(CC)COC(=O)CCCCC(=O)OCC(CC)CCCC	-3.77
in CCCCC(CC)COC(=O)c1ccccc1C(=O)OCC(CC)CCCC	-3.6
in CCCCCC	-4.24
in CCCCCC#N	-3.66
in CCCCCC(C)=O	-3.86
in CCCCCCC	-4.2
in CCCCCCCC	-4.18
in CCCCCCCCC	-4.13
in CCCCCCCCC=CCCCCCCCC(=O)OCC(COC(=O)CCCCCCCC=CCCCCCCCC)OC(=O)CCCCCCCC=CCCCCCCCC	-3.86
in CCCCCCCCCC	-4.11
in CCCCCCCCCCCC	-4.03
in CCCCCCCCCCCCCC	-3.91
in CCCCCCCCCCCCCCCC	-3.97
in CCCCCCCCCCCCO	-3.7
in CCCCCCCCCCO	-3.42
in CCCCCCCCN(CCCCCCCC)CCCCCCCC	-3.86
in CCCCCCCCO	-3.73
in CCCCCCCO	-3.72
in CCCCCCO	-3.75
in CCCCCCOC(C)=O	-3.93
in CCCCCN(CCCCC)CCCCC	-4.01
in CCCCCO	-3.71
in CCCCCl	-4.17
in CCCCN(C=O)CCCC	-3.67
in CCCCN(CCCC)CCCC	-3.92
in CCCCO	-3.7
in CCCCOC	-4.2
in CCCCOC(=O)c1ccccc1C(=O)OCCCC	-3.73
in CCCCOC(C)=O	-3.91
in CCCCOCC	-4.07
in CCCCOCCCC	-4.13
in CCCO	-3.59
in CCCOCCC	-4.12
in CCN1CCCC1=O	-3.39
in CCN(CC)C(C)=O	-3.55
in CCN(CC)CC	-4.23
in CCNC(C)=O	-3.41
in CCNC=O	-3.22
in CCO	-3.5
in CCOC(=O)c1ccccc1C(=O)OCC	-3.24
in CCOC(C)(C)C	-4.17
in CCOC(C)=O	-3.78
in CCOCC	-4.19
in CCOCCO	-3.41
in CCOCCOCCOCC	-3.81
in CCOc1ccccc1	-3.89
in CN1CCCC1=O	-3.18
in CN1CCCCC1=O	-3.37
in CN1CCN(C)C1=O	-3.07
in CN(C)P(=O)(N(C)C)N(C)C	-3.47
in CNC(C)=O	-3.26
in CNC=O	-2.93
in CO	-3.25
in COC(C)(C)C	-4.16
in COC(C)=O	-3.61
in COCCO	-3.15
in COc1ccccc1	-3.84
in CS(C)=O	-2.5
in Cc1ccc(C)cc1	-4.17
in Cc1cccc2ccccc12	-3.8
in Cc1cccc(O)c1	-3.42
in Cc1ccccc1	-4.2
in Cc1ccccn1	-3.91
in ClC(Cl)(Cl)Cl	-4.44
in ClC(Cl)C(Cl)Cl	-3.76
in ClC(Cl)Cl	-4.33
in ClCCCl	-3.93
in ClCCl	-4.1
in Clc1cccc2ccccc12	-3.88
in Clc1ccccc1	-4.22
in FC(F)(F)C(F)(F)C(F)(F)C(F)(F)C(F)(F)C(F)(F)C(F)(F)C(F)(F)F	-2.65
in FC(F)(F)C(F)(F)C(F)(F)C(F)(F)C(F)(F)C(F)(F)F	-2.71
in Fc1ccccc1	-4.12
in ICI	-3.06
in N#CCCCC#N	-2.17
in N#CCCCCC#N	-2.51
in N#CCCOCCC#N	-2.24
in N#CCc1ccccc1	-3.16
in N#Cc1ccccc1	-3.54
in NC=O	-1.36
in NCCO	-1.69
in NCc1ccccc1	-3.46
in Nc1ccccc1	-3.07
in O	1.22
in O=C1CCCCC1	-3.85
in O=C1CCCO1	-2.81
in O=C(O)C(Cl)Cl	-3.29
in O=CN1CCOCC1	-2.65
in O=Cc1ccco1	-3.01
in OC1CCCCC1	-3.69
in OCCCCCO	-2.61
in OCCCCO	-2.53
in OCCCO	-2.19
in OCCO	-1.5
in OCCOCCO	-2.16
in OCCOCCOCCO	-2.26
in OCCOCCOCCOCCO	-2.34
in OCCS	-2.58
in OCCc1ccccc1	-3.32
in OCc1ccccc1	-3.23
in OCc1ccco1	-2.94
in S=C=S	-4.49
in c1ccc2c(c1)CCCC2	-4.1
in c1ccc2ncccc2c1	-3.61
in c1ccc(C2CCCCC2)cc1	-4.03
in c1ccccc1	-4.23
in c1ccncc1	-3.75
